Patent US20250129078A1, “ERBB2 INHIBITORS” (Cogent Biosciences, Inc., priority 2023, published 2025)
Structures can show the parent of a compound that is named as a salt.

Experiments:
EGFR WT = EGFR WT (Homo sapiens (Human), UniProt P00533); test: ErbB enzyme assay (CisBio HTRF-KinEASE-TK), EGFR WT; format: biochemical; settings: ATP at Km (25 μM), 1 h incubation
In short: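 Tyrosine kinase HTRF, 1 h RT reaction → quench (Sa-XL665/TK-Ab-Cryptate) → 1 h RT → 655/620 ratio.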

ErbB2 V777L = ErbB2 V777L (Homo sapiens (Human), UniProt P04626, V777L); test: ErbB enzyme assay (CisBio HTRF-KinEASE-TK), ErbB2 V777L; format: biochemical
Sequence of ErbB2 V777L (P04626 23-1255 V777L): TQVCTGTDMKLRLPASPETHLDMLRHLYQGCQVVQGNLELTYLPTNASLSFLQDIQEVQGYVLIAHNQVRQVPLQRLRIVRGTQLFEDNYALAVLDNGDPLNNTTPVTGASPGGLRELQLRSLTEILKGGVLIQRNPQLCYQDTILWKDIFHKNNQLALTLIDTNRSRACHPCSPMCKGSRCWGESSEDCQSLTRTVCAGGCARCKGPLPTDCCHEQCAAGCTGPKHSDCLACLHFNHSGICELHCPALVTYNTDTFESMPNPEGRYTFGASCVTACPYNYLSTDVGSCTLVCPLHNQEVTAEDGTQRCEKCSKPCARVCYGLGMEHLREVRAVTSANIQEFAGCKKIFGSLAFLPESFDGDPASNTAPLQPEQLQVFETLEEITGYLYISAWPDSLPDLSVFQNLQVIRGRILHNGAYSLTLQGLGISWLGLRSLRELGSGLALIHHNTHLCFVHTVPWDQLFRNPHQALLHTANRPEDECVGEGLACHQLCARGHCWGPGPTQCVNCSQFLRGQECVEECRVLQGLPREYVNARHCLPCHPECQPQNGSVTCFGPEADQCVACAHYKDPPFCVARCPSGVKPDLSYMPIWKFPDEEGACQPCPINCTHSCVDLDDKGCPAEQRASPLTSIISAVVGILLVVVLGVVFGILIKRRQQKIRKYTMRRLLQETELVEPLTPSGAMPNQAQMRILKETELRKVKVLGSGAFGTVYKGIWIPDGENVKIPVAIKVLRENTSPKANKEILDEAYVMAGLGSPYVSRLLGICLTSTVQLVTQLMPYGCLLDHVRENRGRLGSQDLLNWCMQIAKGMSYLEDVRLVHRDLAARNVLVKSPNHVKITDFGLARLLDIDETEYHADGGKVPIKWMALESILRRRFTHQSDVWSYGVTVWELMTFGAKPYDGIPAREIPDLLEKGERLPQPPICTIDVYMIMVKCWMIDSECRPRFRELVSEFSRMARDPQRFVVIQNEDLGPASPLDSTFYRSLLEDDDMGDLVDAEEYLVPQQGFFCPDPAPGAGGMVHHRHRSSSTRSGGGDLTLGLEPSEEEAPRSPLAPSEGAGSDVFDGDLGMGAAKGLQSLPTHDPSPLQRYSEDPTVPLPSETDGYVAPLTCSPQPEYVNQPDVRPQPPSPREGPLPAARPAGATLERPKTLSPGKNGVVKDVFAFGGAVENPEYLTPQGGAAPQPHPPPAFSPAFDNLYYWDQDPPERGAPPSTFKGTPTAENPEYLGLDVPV
In short: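 HTRF KinEASE-TK tyrosine-kinase read-out of substrate phosphorylation after a final 1 h at ambient temperature, from the 655/620 nm emission ratio.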

Sequence of EGFR WT (P00533 25-1210): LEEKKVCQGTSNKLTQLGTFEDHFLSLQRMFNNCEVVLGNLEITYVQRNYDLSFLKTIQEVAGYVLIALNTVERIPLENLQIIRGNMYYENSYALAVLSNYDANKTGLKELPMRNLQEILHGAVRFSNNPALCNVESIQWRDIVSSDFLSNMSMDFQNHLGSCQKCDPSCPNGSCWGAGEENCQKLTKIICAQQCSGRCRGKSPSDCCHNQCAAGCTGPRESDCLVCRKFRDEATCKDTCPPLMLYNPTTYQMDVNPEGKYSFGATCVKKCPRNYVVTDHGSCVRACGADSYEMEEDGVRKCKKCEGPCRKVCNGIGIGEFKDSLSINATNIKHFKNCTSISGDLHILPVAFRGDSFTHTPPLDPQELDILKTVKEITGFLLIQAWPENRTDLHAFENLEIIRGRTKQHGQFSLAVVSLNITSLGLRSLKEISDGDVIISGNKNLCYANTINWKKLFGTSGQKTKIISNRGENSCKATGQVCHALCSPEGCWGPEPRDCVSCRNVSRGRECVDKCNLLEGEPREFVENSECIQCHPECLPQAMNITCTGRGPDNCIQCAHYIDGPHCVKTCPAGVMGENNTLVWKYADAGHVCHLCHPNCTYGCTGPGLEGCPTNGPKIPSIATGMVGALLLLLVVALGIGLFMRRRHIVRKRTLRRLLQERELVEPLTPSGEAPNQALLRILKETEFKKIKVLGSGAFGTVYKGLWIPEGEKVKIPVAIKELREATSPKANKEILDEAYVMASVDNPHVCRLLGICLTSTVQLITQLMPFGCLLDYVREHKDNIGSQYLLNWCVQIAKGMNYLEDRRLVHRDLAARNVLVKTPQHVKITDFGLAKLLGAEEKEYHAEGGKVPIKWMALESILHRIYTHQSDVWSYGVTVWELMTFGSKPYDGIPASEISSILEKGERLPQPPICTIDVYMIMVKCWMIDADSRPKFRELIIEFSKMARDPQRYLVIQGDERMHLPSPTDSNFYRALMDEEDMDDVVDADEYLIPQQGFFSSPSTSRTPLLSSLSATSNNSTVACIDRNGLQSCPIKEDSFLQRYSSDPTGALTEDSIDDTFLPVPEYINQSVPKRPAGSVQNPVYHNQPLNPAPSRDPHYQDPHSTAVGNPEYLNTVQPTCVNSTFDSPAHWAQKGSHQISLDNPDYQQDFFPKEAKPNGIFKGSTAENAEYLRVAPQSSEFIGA

IC50 (EGFR WT)	IC50 (ErbB2 V777L)	Compound
< 50 nM	50 to 100 nM	C=CC(=O)N1CC2CC1CN2c1ncc2ncnc(Nc3ccc(Oc4ccc5c(c4)nnn5C)c(C)c3)c2n1 (stereo not shown) [Compound 61, 1-(5-(8-((3-methyl-4-((1-methyl-1H-benzo[d][1,2,3]triazol-5-yl)oxy)phenyl)amino)pyrimido[5,4-d]pyrimidin-2-yl)-2,5-diazabicyclo[2.2.1]heptan-2-yl)prop-2-en-1-one]
100 to 500 nM	50 to 100 nM	C=CC(=O)N1C2COCC1CC(c1ccc3ncnc(Nc4ccc(Oc5ccc6c(c5)nnn6C)c(C)c4)c3n1)C2 (stereo not shown) [Compound 396, 1-(7-(4-((3-methyl-4-((1-methyl-1H-benzo[d][1,2,3]triazol-5-yl)oxy)phenyl)amino)pyrido[3,2-d]pyrimidin-6-y1)-3-oxa-9-azabicyclo[3.3.1]nonan-9-yl)prop-2-en-1-one trifluoroacetate]
100 to 500 nM	50 to 100 nM	C=CC(=O)N1CCCC(c2ccc3ncnc(Nc4ccc(Oc5ccc6c(c5)nnn6C)c(C)c4)c3n2)C1 (stereo not shown) [Compound 398, 1-(3-(4-((3-methyl-4-((1-methyl-1H-benzo[d][1,2,3]triazol-5-yl)oxy)phenyl)amino)pyrido[3,2-d]pyrimidin-6-yl)piperidin-1-yl)prop-2-en-1-one]
≥ 1000 nM	100 to 500 nM	C=C1CCN(C2CCN(c3ncc4ncnc(Nc5ccc(Oc6ccn7ncnc7c6)c(C)c5)c4n3)CC2)C1=O [Compound 240, 1-(1-(8-((4-([1,2,4]triazolo[1,5-a]pyridin-7-yloxy)-3-methylphenyl)amino)pyrimido[5,4-d]pyrimidin-2-yl)piperidin-4-yl)-3-methylenepyrrolidin-2-one]
100 to 500 nM	100 to 500 nM	C=CC(=O)N1C2CC1CN(c1ncc3ncnc(Nc4cc(C)c(Oc5ccc6c(c5)nnn6C)cc4OC)c3n1)C2 [Compound 13, 1-(3-(8-((2-methoxy-5-methyl-4-((1-methyl-1H-benzo[d][1,2,3]triazol-5-yl)oxy)phenyl)amino)pyrimido[5,4-d]pyrimidin-2-y1)-3,6-diazabicyclo[3.1.1]heptan-6-yl)prop-2-en-1-one]
100 to 500 nM	50 to 100 nM	C=CC(=O)N1CCN(c2ccc3ncnc(Nc4cc(F)c(Oc5ccc6c(c5)nnn6C)c(C)c4F)c3n2)C[C@H]1C [Compound 326, (R)-1-(4-(4-((2,5-difluoro-3-methyl-4-((1-methyl-1H-benzo[d][1,2,3]triazol-5-yl)oxy)phenyl)amino)pyrido[3,2-d]pyrimidin-6-yl)-2-methylpiperazin-1-yl)prop-2-en-1-one]
≥ 1000 nM	500 to 1000 nM	C=CC(=O)N1CCN(c2ncc3ncnc(Nc4ccc(Oc5ccc6c(c5)nnn6C)c(C)c4)c3n2)C[C@@H]1CC [Compound 115, (S)-1-(2-ethyl-4-(8-((3-methyl-4-((1-methyl-1H-benzo[d][1,2,3]triazol-5-yl)oxy)phenyl)amino)pyrimido[5,4-d]pyrimidin-2-yl)piperazin-1-yl)prop-2-en-1-one]
100 to 500 nM	50 to 100 nM	C=CC(=O)N1CCN(c2ccc3ncnc(Nc4cc(C)c(Oc5ccc6c(c5)nnn6C)cc4OC(F)F)c3n2)CC1 [Compound 315, 1-(4-(4-((2-(difluoromethoxy)-5-methyl-4-((1-methyl-1H-benzo[d][1,2,3]triazol-5-yl)oxy)phenyl)amino)pyrido[3,2-d]pyrimidin-6-yl)piperazin-1-yl)prop-2-en-1-one]

The next lines start with the molecule.

Compound	IC50 (EGFR WT)	IC50 (ErbB2 V777L)
C=CC(=O)N1CCN(c2ncc3ncnc(Nc4ccc(Oc5ccc6c(c5)ncn6C(F)F)c(C)c4F)c3n2)C[C@H]1C [Compound 148, (R)-1-(4-(8-((4-((1-(difluoromethyl)-1H-benzo[d]imidazol-5-yl)oxy)-2-fluoro-3-methylphenyl)amino)pyrimido[5,4-d]pyrimidin-2-yl)-2-methylpiperazin-1-yl)prop-2-en-1-one]	100 to 500 nM	50 to 100 nM
C=C(F)C(=O)N1CCN(c2ccc3ncnc(Nc4ccc(Oc5ccc6c(c5)nnn6C)c(C)c4)c3n2)C[C@H]1COC [Compound 362, (S)-2-fluoro-1-(2-(methoxymethyl)-4-(4-((3-methyl-4-((1-methyl-1H-benzo[d][1,2,3]triazol-5-yl)oxy)phenyl)amino)pyrido[3,2-d]pyrimidin-6-yl)piperazin-1-yl)prop-2-en-1-one]	≥ 1000 nM	500 to 1000 nM
C=CC(=O)N1CC=C(c2ncc3ncnc(Nc4ccc(Oc5ccn6ncnc6c5)c(C)c4F)c3n2)C[C@@H]1C [Compound 404, (S)-1-(4-(8-((4-([1,2,4]triazolo[1,5-a]pyridin-7-yloxy)-2-fluoro-3-methylphenyl)amino)pyrimido[5,4-d]pyrimidin-2-yl)-2-methyl-3,6-dihydropyridin-1(2H)-yl)prop-2-en-1-one]	100 to 500 nM	100 to 500 nM
C=CC(=O)N1C[C@@H](C)N(c2ncc3ncnc(Nc4ccc(Oc5ccc6c(c5)nnn6C)c(C)c4)c3n2)C[C@H]1C [Compound 186, 1-((2R,5R)-2,5-dimethyl-4-(8-((3-methyl-4-((1-methyl-1H-benzo[d][1,2,3]triazol-5-yl)oxy)phenyl)amino)pyrimido[5,4-d]pyrimidin-2-yl)piperazin-1-yl)prop-2-en-1-one]	≥ 1000 nM	100 to 500 nM
C=CC(=O)N1CCN(c2ncc3ncnc(Nc4cc(C)c(Oc5ccc6c(c5)nnn6C)cc4F)c3n2)CC1 [Compound 6, 1-(4-(8-((2-fluoro-5-methyl-4-((1-methyl-1H-benzo[d][1,2,3]triazol-5-yl)oxy)phenyl)amino)pyrimido [5,4-d]pyrimidin-2-yl)piperazin-1-yl)prop-2-en-1-one]	100 to 500 nM	100 to 500 nM
C=C(C)C(=O)N1CCN(c2ncc3ncnc(Nc4ccc(Oc5ccc6c(c5)nnn6C)c(C)c4)c3n2)CC1 [Compound 35, 2-methyl-1-(4-(8-((3-methyl-4-((1-methyl-1H-benzo[d][1,2,3]triazol-5-yl)oxy)phenyl)amino)pyrimido [5,4-d]pyrimidin-2-y1)piperazin-1-yl)prop-2-en-1-one]	≥ 1000 nM	500 to 1000 nM
C=CC(=O)N1CCN(c2ncc3ncnc(Nc4ccc(Oc5ccc6c(c5)nnn6C(F)F)c(C)c4)c3n2)CC1 [Compound 63, 1-(4-(8-((4-((1-(difluoromethyl)-1H-benzo[d][1,2,3]triazol-5-yl)oxy)-3-methylphenyl)amino)pyrimido[5,4-d]pyrimidin-2-yl)piperazin-1-yl)prop-2-en-1-one]	< 50 nM	50 to 100 nM
Cc1cc(Nc2ncnc3cnc(N4CCN(C(=O)/C=C/CN5CCOCC5)CC4)nc23)ccc1Oc1ccc2c(c1)nnn2C [Compound 53, (E)-1-(4-(8-((3-methyl-4-((1-methyl-1H-benzo[d][1,2,3]triazol-5-yl)oxy)phenyl)amino)pyrimido [5,4-d]pyrimidin-2-yl)piperazin-1-yl)-4-morpholinobut-2-en-1-one formate]	100 to 500 nM	100 to 500 nM
C=CC(=O)NC1(C(F)(F)F)CCN(c2ccc3ncnc(Nc4ccc(Oc5ccc6c(c5)nnn6C)c(C)c4F)c3n2)CC1 [Compound 345, N-(1-(4-((2-fluoro-3-methyl-4-((1-methyl-1H-benzo[d][1,2,3]triazol-5-yl)oxy)phenyl)amino)pyrido[3,2-d]pyrimidin-6-yl)-4-(trifluoromethyl)piperidin-4-yl)acrylamide]	100 to 500 nM	100 to 500 nM
C=CC(=O)N1[C@@H]2CC[C@H]1C[C@@H](Oc1ncc3ncnc(Nc4ccc(Oc5ccc6c(c5)ncn6C)c(C)c4)c3n1)C2 [Compound 391, 1-((1R,3r,5S)-3-((8-((3-methyl-4-((1-methyl-1H-benzo[d]imidazol-5-yl)oxy)phenyl)amino)pyrimido[5,4-d]pyrimidin-2-yl)oxy)-8-azabicyclo[3.2.1]octan-8-yl)prop-2-en-1-one]	500 to 1000 nM	500 to 1000 nM
C=CC(=O)N1CC[C@H](N(C)c2ccc3ncnc(Nc4ccc(Oc5ccc6c(c5)nnn6C)c(C)c4)c3n2)[C@@H]1C [Compound 265, 1-((2S,3S)-2-methyl-3-(methyl(4-((3-methyl-4-((1-methyl-1H-benzo[d][1,2,3]triazol-5-yl)oxy)phenyl)amino)pyrido[3,2-d]pyrimidin-6-yl)amino)pyrrolidin-1-yl)prop-2-en-1-one]	100 to 500 nM	100 to 500 nM
C=CC(=O)N1C2CCCC1CC(c1ccc3ncnc(Nc4ccc(Oc5ccc6c(c5)nnn6C)c(C)c4)c3n1)C2 (stereo not shown) [Compound 395, 1-(3-(4-((3-methyl-4-((1-methyl-1H-benzo[d][1,2,3]triazol-5-yl)oxy)phenyl)amino)pyrido[3,2-d]pyrimidin-6-yl)-9-azabicyclo[3.3.1]nonan-9-yl)prop-2-en-1-one trifluoroacetate]	100 to 500 nM	100 to 500 nM
C=CC(=O)N1CCN(c2ccc3ncnc(Nc4cc(C)c(Oc5ccc6c(c5)ncn6C(F)F)cc4OC)c3n2)CC1 [Compound 370, 1-(4-(4-((4-((1-(difluoromethyl)-1H-benzo[d]imidazol-5-yl)oxy)-2-methoxy-5-methylphenyl)amino)pyrido[3,2-d]pyrimidin-6-yl)piperazin-1-yl)prop-2-en-1-one]	100 to 500 nM	50 to 100 nM
C=CC(=O)N[C@@H]1CCCN(c2ncc3ncnc(Nc4ccc(Oc5ccc6c(c5)nnn6C)c(C)c4F)c3n2)C1 [Compound 157, (R)-N-(1-(8-((2-fluoro-3-methyl-4-((1-methyl-1H-benzo[d][1,2,3]triazol-5-yl)oxy)phenyl)amino)pyrimido[5,4-d]pyrimidin-2-yl)piperidin-3-yl)acrylamide]	100 to 500 nM	50 to 100 nM
C=CC(=O)N1C2CC1CN(c1ncc3ncnc(Nc4ccc(Oc5ccc6c(c5)nnn6C)c(C)c4)c3n1)C2 [Compound 60, 1-(3-(8-((3-methyl-4-((1-methyl-1H-benzo[d][1,2,3]triazol-5-yl)oxy)phenyl)amino)pyrimido[5,4-d]pyrimidin-2-yl)-3,6-diazabicyclo[3.1.1]heptan-6-yl)prop-2-en-1-one]	100 to 500 nM	50 to 100 nM
